Results on four compounds are retold here after ChEMBL document CHEMBL1157899, “Molecular modelling, synthesis and acetylcholinesterase inhibition of ethyl 5-amino-2-methyl-6,7,8,9-tetrahydrobenzo[b][1,8]naphthyridine-3-carboxylate” (Bioorg Med Chem Lett, 2010).

Assay [1] addresses Acetylcholinesterase (Homo sapiens, UniProt P22303). The experiment in a line: Inhibition of human AChE.
For assay [2], the target named is Acetylcholinesterase (Electrophorus electricus, UniProt O42275). The experiment in a line: Inhibition of electric eel AChE.
Assay [3] addresses Cholinesterase (Equus caballus, UniProt P81908). The experiment in a line: Inhibition of Equus caballus BuChE.

Chain of Acetylcholinesterase (Electrophorus electricus, UniProt O42275) (O42275 whole entry): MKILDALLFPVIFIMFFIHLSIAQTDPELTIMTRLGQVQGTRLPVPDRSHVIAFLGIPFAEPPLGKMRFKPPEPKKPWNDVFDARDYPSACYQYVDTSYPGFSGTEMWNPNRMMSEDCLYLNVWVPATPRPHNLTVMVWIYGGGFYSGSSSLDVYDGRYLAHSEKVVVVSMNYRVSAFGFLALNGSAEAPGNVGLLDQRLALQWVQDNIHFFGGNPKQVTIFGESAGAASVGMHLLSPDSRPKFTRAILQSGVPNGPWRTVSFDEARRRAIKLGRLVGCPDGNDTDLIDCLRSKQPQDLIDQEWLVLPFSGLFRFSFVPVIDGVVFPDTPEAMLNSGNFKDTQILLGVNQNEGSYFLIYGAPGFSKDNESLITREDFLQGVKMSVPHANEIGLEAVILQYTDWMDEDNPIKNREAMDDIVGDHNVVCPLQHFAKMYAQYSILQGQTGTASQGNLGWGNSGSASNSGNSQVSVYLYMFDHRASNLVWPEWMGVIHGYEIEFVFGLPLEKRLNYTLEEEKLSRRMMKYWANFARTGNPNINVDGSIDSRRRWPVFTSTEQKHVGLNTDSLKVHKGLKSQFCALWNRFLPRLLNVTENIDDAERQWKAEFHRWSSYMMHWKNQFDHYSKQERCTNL
Chain of Cholinesterase (P81908 whole entry): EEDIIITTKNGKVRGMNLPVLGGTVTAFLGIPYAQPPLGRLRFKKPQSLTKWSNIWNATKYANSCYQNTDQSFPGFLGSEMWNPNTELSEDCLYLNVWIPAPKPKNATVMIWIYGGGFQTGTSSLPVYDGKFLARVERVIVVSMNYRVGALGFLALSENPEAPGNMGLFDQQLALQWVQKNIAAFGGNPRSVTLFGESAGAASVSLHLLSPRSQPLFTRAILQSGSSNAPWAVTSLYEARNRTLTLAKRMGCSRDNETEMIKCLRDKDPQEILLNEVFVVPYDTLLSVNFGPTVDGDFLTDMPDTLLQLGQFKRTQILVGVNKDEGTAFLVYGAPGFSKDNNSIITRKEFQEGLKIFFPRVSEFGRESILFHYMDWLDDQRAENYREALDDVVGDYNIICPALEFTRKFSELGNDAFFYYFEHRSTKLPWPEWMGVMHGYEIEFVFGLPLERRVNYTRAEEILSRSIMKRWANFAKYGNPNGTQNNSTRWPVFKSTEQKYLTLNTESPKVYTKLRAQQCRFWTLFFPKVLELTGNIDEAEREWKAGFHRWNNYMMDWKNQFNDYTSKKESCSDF
Chain of Acetylcholinesterase (Homo sapiens, UniProt P22303) (P22303 whole entry): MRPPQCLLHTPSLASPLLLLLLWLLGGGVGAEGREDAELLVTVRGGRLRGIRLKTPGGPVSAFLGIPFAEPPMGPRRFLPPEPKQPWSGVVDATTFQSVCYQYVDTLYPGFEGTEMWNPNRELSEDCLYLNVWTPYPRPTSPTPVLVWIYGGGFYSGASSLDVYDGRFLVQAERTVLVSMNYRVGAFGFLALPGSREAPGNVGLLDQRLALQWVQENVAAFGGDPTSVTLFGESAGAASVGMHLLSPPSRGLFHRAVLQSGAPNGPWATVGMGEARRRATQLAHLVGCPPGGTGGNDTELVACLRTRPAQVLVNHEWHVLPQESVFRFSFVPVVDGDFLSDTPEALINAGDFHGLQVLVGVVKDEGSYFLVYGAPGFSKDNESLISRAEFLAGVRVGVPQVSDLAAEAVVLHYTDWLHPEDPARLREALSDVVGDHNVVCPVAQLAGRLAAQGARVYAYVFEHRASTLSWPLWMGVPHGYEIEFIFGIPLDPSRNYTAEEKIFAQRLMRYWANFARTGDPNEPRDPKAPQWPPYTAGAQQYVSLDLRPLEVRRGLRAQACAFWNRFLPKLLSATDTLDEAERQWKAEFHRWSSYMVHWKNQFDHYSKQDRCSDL

In the case of `CCOC(=O)c1cc2c(N)c3c(nc2nc1C)CCCC3`, the figures for the half-inhibitory concentration (IC50) in assay [1], in assay [2] and in assay [3] (read-out: IC50) were 0.78 µM, 0.06 µM and 12 µM, respectively.

For `Cc1nc2nc3c(c(N)c2cc1C(=O)O)CCCC3`, the values for the IC50 in assay [2] and in assay [3] were 15 µM and “Not Active”, respectively.

On to `Cc1nc2nc3c(c(N)c2cc1C(=O)[O-])CCCC3.[Na+]`, for which the IC50 is 5.3 µM in assay [2] and “Not Active” in assay [3].

Regarding `CCOC(=O)c1c(C)nc2nc3c(c(N)c2c1-c1ccccc1)CCCC3`, the IC50 in assay [3] (read-out: IC50) was determined as 5.03 µM.
